Here are results for 21 compounds from patent US11008304B2, “Tetrazole containing apoptosis signal-regulating kinase 1 inhibitors and methods of use thereof” (ENANTA PHARMACEUTICALS, INC., priority 2018, dated 2021).

Chain of ASK1 kinase (Q99683 whole entry): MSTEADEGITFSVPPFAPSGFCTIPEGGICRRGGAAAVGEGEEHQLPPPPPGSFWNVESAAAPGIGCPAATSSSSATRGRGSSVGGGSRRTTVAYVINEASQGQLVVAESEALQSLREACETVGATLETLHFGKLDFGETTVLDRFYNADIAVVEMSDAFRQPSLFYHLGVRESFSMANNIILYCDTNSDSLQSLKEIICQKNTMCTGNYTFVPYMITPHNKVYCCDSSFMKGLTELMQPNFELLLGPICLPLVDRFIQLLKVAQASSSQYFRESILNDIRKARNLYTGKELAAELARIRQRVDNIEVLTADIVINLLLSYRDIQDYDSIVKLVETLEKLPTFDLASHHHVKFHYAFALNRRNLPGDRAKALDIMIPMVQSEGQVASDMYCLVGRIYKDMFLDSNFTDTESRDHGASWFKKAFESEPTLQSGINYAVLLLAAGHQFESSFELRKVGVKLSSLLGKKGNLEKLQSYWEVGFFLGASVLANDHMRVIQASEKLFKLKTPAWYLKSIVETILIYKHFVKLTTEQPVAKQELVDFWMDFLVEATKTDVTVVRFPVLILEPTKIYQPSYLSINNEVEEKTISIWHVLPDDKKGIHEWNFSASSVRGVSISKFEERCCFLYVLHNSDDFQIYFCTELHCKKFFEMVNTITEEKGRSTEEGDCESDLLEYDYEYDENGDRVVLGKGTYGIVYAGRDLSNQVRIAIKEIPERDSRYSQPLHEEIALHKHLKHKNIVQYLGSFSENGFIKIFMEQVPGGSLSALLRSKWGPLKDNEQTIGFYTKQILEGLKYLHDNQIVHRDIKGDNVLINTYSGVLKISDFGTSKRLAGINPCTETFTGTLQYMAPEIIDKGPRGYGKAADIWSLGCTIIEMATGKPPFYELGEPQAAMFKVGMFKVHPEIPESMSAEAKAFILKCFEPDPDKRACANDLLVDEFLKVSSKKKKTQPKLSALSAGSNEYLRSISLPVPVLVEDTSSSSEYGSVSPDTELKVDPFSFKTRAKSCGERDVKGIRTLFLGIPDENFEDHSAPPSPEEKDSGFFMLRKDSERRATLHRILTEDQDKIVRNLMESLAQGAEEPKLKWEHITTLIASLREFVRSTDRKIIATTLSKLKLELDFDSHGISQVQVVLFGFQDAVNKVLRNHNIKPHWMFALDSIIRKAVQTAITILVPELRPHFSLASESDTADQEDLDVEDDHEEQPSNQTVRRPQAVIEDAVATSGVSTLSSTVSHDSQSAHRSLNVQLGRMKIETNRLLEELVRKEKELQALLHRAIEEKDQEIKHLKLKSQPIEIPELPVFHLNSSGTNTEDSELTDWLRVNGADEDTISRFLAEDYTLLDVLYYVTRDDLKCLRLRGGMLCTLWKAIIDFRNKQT

The assay addresses ASK1 kinase (Homo sapiens (Human), UniProt Q99683). In words: HTRF KinEASE assay of ASK1 kinase activity inhibition. It is filed as biochemical. Particulars: 5 nM ASK1, 1 uM STK3 peptide substrate, 100 uM ATP, TR-FRET readout. On the procedure: The ability (IC50) of compounds to inhibit ASK1 kinase activity was determined by HTRF® KinEASE™ Assay System. ASK1 was purchased from Thermofisher (Catalogue #PV4011), ATP was purchased from Sigma (Catalogue #A7699), HTRF® KinEASE™ Assay System was obtained from Cisbio (Bedford, Mass.). ½ Area plate was purchased from Perkin Elmer (Catalogue ##6005560). HTRF® KinEASE™-STK is a generic method for measuring serine/threonine kinase activities using a time-resolved fluorescence resonance energy transfer (TR-FRET) immunoassay. The IC50 value for each compound was determined in the presence of compound (various concentration from 0 to 10 μM) and a fixed amount of ATP and peptide substrates. The test compound, 1 uM STK3 peptide substrate, and 5 nM of ASK1 kinase are incubated with kinase reaction buffer containing 50 mM HEPES pH 7.5, 0.01% BRIJ-35, 10 mM MgCl2, and 1 mM EGTA for 30 minutes. 100 uM ATP is added to start kinase reaction and incubated for 3 hours. The STK3-antibody labeled with Eu^3+-Cryptate and 125 nM streptavidin-XL665 are mixed in a single addition with stop reagents provided by the Cisbio kit used to stop the kinase reaction. Fluorescence is detected using an Envision Multilabeled 2014 reader from PerkinElmer. The Fluorescence is measured at 615 nm (Cryptate) and 665 nm (XL665) and a ratio of 665 nm/615 nm is calculated for each well. The resulting TR-FRET is proportional to the phosphorylation level. Staurosporine was used as the positive control. IC50 was determined by XLfit 5.3. By using above method, the inhibition of ASK1 was tested for the compound of formula (I). IC50 ranges are as follows: A<1 nM; 1 nM<B<10 nM; 10 nM<C<100 nM; 100 nM<D<1 μM; E>1 μM.
`Cc1cc(F)c(C(=O)Nc2cccc(-c3nnnn3[C@H](C)CO)n2)cc1-c1cn(C(C)C)cn1` [Example 63]: the 50% inhibitory concentration (IC50) fell in the range of 10 to 100 nM.

In the case of `Cc1cc(F)c(C(=O)Nc2cccc(-c3nnnn3C(C)C)n2)cc1-c1ccccn1` [Example 64], the IC50 lay in the range of 100 to 1000 nM.

Compound `Cc1cc(F)c(C(=O)Nc2cccc(-c3nnnn3C(C)C)n2)cc1-c1cccnc1` [Example 65] yielded an IC50 of 1 to 10 nM.

`Cc1cc(F)c(C(=O)Nc2cccc(-c3nnnn3C(C)C)n2)cc1-c1ccncc1` [Example 66] came in with an IC50 of 10 to 100 nM.

Compound `Cc1ncc(-c2cc(C(=O)Nc3cccc(-c4nnnn4C(C)C)n3)c(F)cc2C)s1` [Example 67] gave an IC50 of 10 to 100 nM.

In the case of `Cc1nc(-c2cc(C(=O)Nc3cccc(-c4nnnn4C(C)C)n3)c(F)cc2C)cs1` [Example 68], the IC50 was in the range of 100 to 1000 nM.

As to `Cc1cc(F)c(C(=O)Nc2cccc(-c3nnnn3C(C)C)n2)cc1-c1ccc(C2CC2)s1` [Example 69], the IC50 was 10 to 100 nM.

Take `Cc1cc(F)c(C(=O)Nc2cccc(-c3nnnn3[C@H](C)CO)n2)cc1-c1ccc(C2CC2)s1` [Example 70]: the IC50 fell in the range of 1 to 10 nM.

Consider `Cc1cc(F)c(C(=O)Nc2cccc(-c3nnnn3C(C)C)n2)cc1-c1cc(C2CC2)on1` [Example 71], for which the IC50 was in the range of 10 to 100 nM.

The compound `COc1cc(C)c(-c2cnn(C)c2)cc1C(=O)Nc1cccc(-c2nnnn2C(C)C)n1` [Example 73] yielded a half-maximal inhibitory concentration (IC50) of 1 to 10 nM.

`COc1cc(C)c(-c2cnn(C)c2)cc1C(=O)Nc1cccc(-n2nnnc2C(C)C)n1` [Example 74] showed a half-maximal inhibitory concentration (IC50) of 1 to 10 nM.

The compound `COc1cc(C)c(-c2cnn(C3CC3)c2)cc1C(=O)Nc1cccc(-c2nnnn2C(C)C)n1` [Example 75] gave an IC50 of less than 1 nM.

Take `COc1cc(C)c(-c2cnn(C3CC3)c2)cc1C(=O)Nc1cccc(-n2nnnc2C(C)C)n1` [Example 76]: the IC50 is less than 1 nM.

In turn, `COc1cc(C)c(-c2cnn(C3CC3)c2)cc1C(=O)Nc1cccc(-c2nnnn2[C@H](C)CO)n1` [Example 77, 5-(1-cyclopropyl-1H-pyrazol-4-yl)-N-(6-[1-[(2R)-1-hydroxypropan-2-yl]-1H-1,2,3,4-tetrazol-5-yl]pyridin-2-yl)-2-methoxy-4-methylbenzamide] registered an IC50 of less than 1 nM.

For the compound `COc1cc(C)c(-c2ccn(C(C)C)n2)cc1C(=O)Nc1cccc(-c2nnnn2C(C)C)n1` [Example 78], the IC50 lay within 1 to 10 nM.

Take `COc1cc(C)c(-c2ccn(C(C)C)n2)cc1C(=O)Nc1cccc(-n2nnnc2C(C)C)n1` [Example 79]: the IC50 was 10 to 100 nM.

`COc1cc(C)c(-c2ccn(C(C)C)n2)cc1C(=O)Nc1cccc(-c2nnnn2[C@H](C)CO)n1` [Example 80] came in with a half-maximal inhibitory concentration (IC50) of less than 1 nM.

On to `Cc1cc(F)c(C(=O)Nc2cccc(-c3nnnn3[C@H]3CCOC3)n2)cc1-c1cnn(C2CC2)c1` [Example 81], for which the 50% inhibitory concentration (IC50) lay within 1 to 10 nM.

In turn, `Cc1cc(F)c(C(=O)Nc2cccc(-c3nnnn3[C@@H]3CCOC3)n2)cc1-c1cnn(C2CC2)c1` [Example 82] yielded a half-maximal inhibitory concentration (IC50) of 1 to 10 nM.

Regarding `Cc1cc(F)c(C(=O)Nc2cccc(-c3nnnn3[C@H]3CCC[C@@H]3O)n2)cc1-c1cnn(C2CC2)c1` [Example 83], the IC50 lay within 1 to 10 nM.

In turn, `Cc1cc(F)c(C(=O)Nc2cccc(-c3nnnn3[C@@H]3CCC[C@@H]3O)n2)cc1-c1cnn(C2CC2)c1` [Example 84] displayed a half-inhibitory concentration (IC50) of 1 to 10 nM.
